Data published in article PMC5640845, “Screening of FDA-Approved Drugs for Inhibitors of Japanese Encephalitis Virus Infection” (Journal of Virology, 2017).
pIC50: −log10 of the molar value. Structures can show the parent of a compound that is named as a salt.

Columns and labels:
JEV = experiment: IFA of JEV infection with calcium inhibitors on Vero and Huh-7 cells; assay type: cell-based, Japanese encephalitis virus
[1] = Cytotoxicity (CC50) of compounds from the reconfirmation screen; assay type: cell-based; conditions: African green monkey, Vero cells; 50% cytotoxic concentration
JEV RVP [2] = experiment: in vitro; conditions: African green monkey, SI (selective index, CC50/IC50), Vero cells
JEV RVP [3] = experiment: microbe, parasite or virus in culture; conditions: Japanese encephalitis virus, Vero; for pIC50: 24 h; for inhibition at 10 µM: read-out: level of inhibition in the primary screen
ZIKV = ZIKV infection of Vero cells (viral titer, RNA, IFA); assay type: cell-based, Zika virus; conditions: 48 h; for ZIKV plaque formation: 10 μM, Vero cells
YFV = assay type: cell-based, yellow fever virus
[4] = system: JEV NS4B Q130 mutant viruses; assay type: cell-based, Japanese encephalitis virus
JEV strain AT31 [5] = experiment: qRT-PCR quantification of JEV RNA in cell lysates; conditions: high-, middle- and low-dose groups, 24 h
JEV strain AT31 [6] = conditions: mouse, in vivo
DENV-2 replicon = DENV-2 replicon luciferase assay in BHK-21 cells; assay type: cell-based, dengue virus type 2; conditions: 72 h
Method: FIG 4 Broad-spectrum antiviral activity of the hit drugs against flaviviruses. […] The hit drugs were added to the cells at 1 h preinfection and were present throughout the experiment. At 48 h postinfection, the cell culture supernatants were subjected to a viral titer assay (top left), while cell lysates were assessed for viral RNA quantification (top right), and duplicate cells were analyzed by IFA for E protein (green) expression (bottom). Nuclei (blue) were stained with DAPI (4′,6-diamidino-2-phenylindole). (B and C) BHK-21 cells transfected with the WNV or DENV-2 replicon were treated with the hit drugs at the indicated concentrations, and luciferase activities were determined 48 h or 72 h later.
To ensure the effectiveness of the hit drugs in flavivirus replication, BHK-21 cells transfected with the JEV, WNV, or DENV-2 replicon were incubated with each drug at the concentrations indicated above, and the luciferase activities were determined 24 h, 48 h, or 72 h later, respectively.

JEV RVP [7] = conditions: Vero cells

## CC(=O)OCOC(=O)CN(CC(=O)OCOC(C)=O)c1ccccc1OCCOc1ccccc1N(CC(=O)OCOC(C)=O)CC(=O)OCOC(C)=O [BAPTA-AM, 1,2-bis-(o-aminophenoxy)-ethane-N,N,N′,N′-tetraacetic acid, tetraacetoxymethyl ester]
JEV
  inhibition of JEV infection (IFA, prM-positive cells vs DMSO control): suppress JEV infection

## COC(=O)C1=C(C)NC(C)=C(C(=O)OC2CCCN(Cc3ccccc3)C2)C1c1cccc([N+](=O)[O-])c1 (stereo not drawn) [Benidipine hydrochloride]
[1]
  CC50: 55.9 µM
JEV RVP [2]
  selectivity ratio: 15
JEV RVP [3]
  pIC50: 5.43

## Clc1ccc(CCC(Cn2ccnc2)Sc2c(Cl)cccc2Cl)cc1 (stereo not drawn) [Butoconazole Nitrate]
[1]
  CC50: 15.7 µM
JEV RVP [2]
  selectivity ratio: 4
JEV RVP [3]
  pIC50: 5.40

## COCCOC(=O)C1=C(C)NC(C)=C(C(=O)OC/C=C/c2ccccc2)C1c1cccc([N+](=O)[O-])c1 (stereo not drawn) [Cilnidipine]
[1]
  CC50: > 100 µM
ZIKV
  ZIKV plaque formation: no plaque formation
JEV RVP [2]
  selectivity ratio: > 28.6
JEV RVP [3]
  pIC50: 5.46

## CCOC(=O)C1=C(C)NC(C)=C(C(=O)OCC)C1c1ccccc1/C=C/C(=O)OC(C)(C)C [Lacidipine]
[1]
  CC50: 14.1 µM
JEV RVP [2]
  selectivity ratio: 4
JEV RVP [3]
  pIC50: 5.46

## COC(=O)C1=C(C)NC(C)=C(C(=O)OCCN2CCN(C(c3ccccc3)c3ccccc3)CC2)C1c1cccc([N+](=O)[O-])c1 (stereo not drawn) [Manidipine]
[1]
  CC50: > 100 µM
YFV
  sensitivity of YFV to the drug: resistance
[4]
  decrease of viral titer, Q130A mutant JEV: higher than 2 log-unit
  decrease of viral titer, Q130K mutant JEV: less than 2 log units
  decrease of viral titer, Q130R mutant JEV: less than 2 log units
  reduction of viral yields, WT JEV: approximately 4 log units
  resistance of Q130E mutant JEV to the drug: no resistance
ZIKV
  ZIKV plaque formation: no plaque formation
ZIKV; Zika virus, Vero, read-out: inhibition of ZIKV viral replication, translation, and viral yields
  inhibition at 5 µM: 95%
JEV RVP [2]
  selectivity ratio: > 62.5
JEV strain AT31 [5]
  attenuation of JEV RNA levels (inhibitory effect vs control): at least 80%
JEV RVP [3]
  pIC50: 5.80
JEV strain AT31 [6]
  effect on peripheral JEV infection (serum and spleen viral loads): little effect
  histopathological changes in brain (meningitis, perivascular cuffing, vacuolar degeneration, glial nodules): remarkably alleviated
JEV strain AT31 [6]; ip, 25 mg/kg
  abnormal behavior of treated mice: little abnormal behavior
  animals survived: 12 out of 15
  mortality rate: 20%

## Clc1ccc(C(c2ccccc2Cl)C(Cl)Cl)cc1 (stereo not drawn) [Mitotane]
[1]
  CC50: 25.9 µM
JEV RVP [2]
  selectivity ratio: 3.9
JEV RVP [3]
  pIC50: 5.18

## Cc1c(O)cccc1C(=O)N[C@@H](CSc1ccccc1)[C@H](O)CN1C[C@H]2CCCC[C@H]2C[C@H]1C(=O)NC(C)(C)C [Nelfinavir Mesylate]
DENV-2 replicon
  level of DENV-2 replication (replicon luciferase): no effect at the concentrations tested
[1]
  CC50: 27.1 µM
JEV RVP [2]
  selectivity ratio: 16.8
JEV RVP [3]
  pIC50: 5.80

## CC[C@@H]1/C=C(\C)C[C@H](C)C[C@H](OC)[C@H]2O[C@@](O)(C(=O)C(=O)N3CCCC[C@H]3C(=O)O[C@H](/C(C)=C/[C@@H]3CC[C@H](Cl)[C@H](OC)C3)[C@H](C)[C@@H](O)CC1=O)[C@H](C)C[C@@H]2OC [Pimecrolimus]
[1]
  CC50: > 100 µM
JEV RVP [7]
  SI (selective index, CC50/IC50): > 32
JEV RVP [2]
  selectivity ratio: > 32.3
JEV RVP [3]
  pIC50: 5.51

## COc1ccc(CCN(C)CCCC(C#N)(c2ccc(OC)c(OC)c2)C(C)C)cc1OC (stereo not drawn) [Verapamil]
JEV
  inhibition of JEV infection (IFA, prM-positive cells vs DMSO control): dose-dependent inhibition

## CCOC(=O)C1=C(C)NC(C)=C(C(=O)OC)C1c1cccc(Cl)c1Cl (stereo not drawn) [felodipine]
JEV RVP [3]
  inhibition at 10 µM: 72%

## Fc1ccc(C(c2ccc(F)cc2)N2CCN(C/C=C/c3ccccc3)CC2)cc1 [flunarizine dihydrochloride]
JEV RVP [3]
  inhibition at 10 µM: > 90%

## COc1ccc(CN2CCN(C(c3ccc(F)cc3)c3ccc(F)cc3)CC2)c(OC)c1OC.Cl.Cl [lomerizine hydrochloride]
JEV RVP [7]; 10 μM compound
  level of inhibition in the primary screen: > 90%

## COC(=O)C1=C(C)NC(C)=C(C(=O)OCCN(C)Cc2ccccc2)C1c1cccc([N+](=O)[O-])c1 (stereo not drawn) [nicardipine hydrochloride]
JEV RVP [3]
  inhibition at 10 µM: 66%

## COC(=O)C1=C(C)NC(C)=C(C(=O)OCC(C)C)C1c1ccccc1[N+](=O)[O-] (stereo not drawn) [nisoldipine]
JEV RVP [3]
  inhibition at 10 µM: 75%
